Experimental data reported in ChEMBL document CHEMBL2203051, “Synthesis of new opioid derivatives with a propellane skeleton and their pharmacologies: part 3, novel propellane derivatives with pentacyclic skeletons” (Bioorg Med Chem Lett, 2012).

Columns and labels:
[1] = species: Mus musculus; assay: Selectivity ratio of Ki for delta opioid receptor mouse whole brain without cerebellum to Ki for kappa opioid receptor in mouse whole brain without cerebellum
[2] = Selectivity ratio of Ki for mu opioid receptor in […] to Ki for kappa opioid receptor in mouse whole brain without cerebellum
[3] = biological target: Kappa-type opioid receptor (Mus musculus, UniProt P33534); assay: Displacement of [3H]U-69,593 from kappa opioid receptor in mouse whole brain without cerebellum
Kappa-type opioid receptor, sequence (P33534 whole entry): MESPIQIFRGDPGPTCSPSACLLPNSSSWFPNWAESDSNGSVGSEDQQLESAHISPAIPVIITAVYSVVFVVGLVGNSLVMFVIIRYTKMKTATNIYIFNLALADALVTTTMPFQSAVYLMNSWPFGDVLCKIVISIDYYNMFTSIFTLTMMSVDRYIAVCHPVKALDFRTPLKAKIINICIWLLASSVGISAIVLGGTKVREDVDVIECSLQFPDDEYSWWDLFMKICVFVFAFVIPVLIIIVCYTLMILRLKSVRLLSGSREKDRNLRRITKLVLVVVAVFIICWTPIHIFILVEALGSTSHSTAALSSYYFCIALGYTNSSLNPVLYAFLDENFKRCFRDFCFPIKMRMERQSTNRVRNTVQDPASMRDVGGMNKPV

[4] = biological target: Delta-type opioid receptor (Mus musculus, UniProt P32300); assay: Displacement of [3H][…] from delta opioid receptor in mouse whole brain without cerebellum
Delta-type opioid receptor, sequence (P32300 whole entry): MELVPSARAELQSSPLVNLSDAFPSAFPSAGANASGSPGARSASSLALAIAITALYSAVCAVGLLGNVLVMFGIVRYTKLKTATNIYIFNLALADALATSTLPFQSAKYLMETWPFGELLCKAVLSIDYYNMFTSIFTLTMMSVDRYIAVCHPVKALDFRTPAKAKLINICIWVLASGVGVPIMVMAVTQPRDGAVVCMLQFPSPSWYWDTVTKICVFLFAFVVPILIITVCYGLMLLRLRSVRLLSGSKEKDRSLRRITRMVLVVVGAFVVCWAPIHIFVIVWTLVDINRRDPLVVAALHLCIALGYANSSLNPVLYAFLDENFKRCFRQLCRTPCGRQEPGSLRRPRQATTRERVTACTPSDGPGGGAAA

[5] = biological target: Mu-type opioid receptor (Cavia porcellus, UniProt P97266); assay: Displacement of [3H]DAMGO from mu opioid receptor in […]
Mu-type opioid receptor, sequence (P97266 whole entry): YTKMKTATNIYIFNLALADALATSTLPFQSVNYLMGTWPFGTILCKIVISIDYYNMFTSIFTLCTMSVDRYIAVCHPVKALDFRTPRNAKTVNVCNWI

SMILES: O=C1CC23CCN(CC4CC4)C4C[C@@H](O)C1CC42Cc1ccc(O)cc13 (stereo not given in full)
- Ratio Ki [1]: 8.9
- Ratio Ki [2]: 1.72
- Ki [3]: 7.63 nM
- Ki [4]: 67.9 nM
- Ki [5]: 13.1 nM

SMILES: O=C1CC23CCN(CC4CC4)C4C=CC1CC42Cc1ccc(O)cc13 (stereo not given)
- Ratio Ki [1]: 27.2
- Ratio Ki [2]: 9.17
- Ki [3]: 1.92 nM
- Ki [4]: 52.2 nM
- Ki [5]: 17.6 nM

SMILES: O=C1CC2N(CC3CC3)CCC34CC(=O)C1CC23Cc1ccc(O)cc14 (stereo not given)
- Ratio Ki [1]: 7.26
- Ratio Ki [2]: 3.31
- Ki [3]: 56.5 nM
- Ki [4]: 410 nM
- Ki [5]: 187 nM

SMILES: O=C1CC23CCN(CC4CC4)C4C[C@H](O)C1CC42Cc1ccc(O)cc13 (stereo not given in full)
- Ratio Ki [1]: 8.72
- Ratio Ki [2]: 4.22
- Ki [3]: 16.7 nM
- Ki [4]: 146 nM
- Ki [5]: 70.7 nM

SMILES: O=C1CC23CCN(CC4CC4)C4CCC1CC42Cc1ccc(O)cc13 (stereo not given)
- Ratio Ki [1]: 52
- Ratio Ki [2]: 3.82
- Ki [3]: 0.84 nM
- Ki [4]: 43.6 nM
- Ki [5]: 3.21 nM
